{
  "source": "patent US20230141718A1",
  "about": "“METHODS OF TREATING GLIOBLASTOMA” (CELGENE QUANTICEL RESEARCH, INC., priority 2021, published 2023)",
  "key": {"[1]": {"test": "Plasma pharmacokinetics of Compound A, CC-90010-GBM-002", "assay_type": "in vivo, human", "design": "AUC / AUC(0-inf): concentration or dose not given beside the values", "conditions": "for Cmax / AUC / AUC(0-inf): geometric mean; for tmax: median; for AUC: read-out: AUC24", "from_the_text": "The primary objectives of the study in this example were to establish the safety, maximum tolerated dose (MTD), and recommended phase 2 dose (RP2D) of Compound A. The preliminary efficacy, pharmacokinetics, and pharmacodynamics were also investigated.\nThe study described in this example (CC-90010-GBM-002/NCT04324840) is a phase 1B dose-finding study investigating standard of care of Compound A in combination with TMZ with or without radiotherapy (RT) in subjects with newly diagnosed GBM. Part A of the study is escalating the oral doses of Compound A in combination with adjuvant TMZ to estimate the MTD and/or the RP2D of Compound A as adjuvant therapy and escalating the oral doses of Compound A in combination with concomitant TMZ+radiotherapy (RT) to estimate the MTD and/or the RP2D of Compound A as concomitant therapy. Part B of the study is the safety and efficacy of Compound A administered at or below the MTD determined for the adjuvant therapy (AT) and concomitant therapy (CT).\nFor adjuvant therapy, Compound A and TMZ was administered for 6 cycles, then Compound A as a monotherapy was administered in 28-day cycles until disease progression, start of a new anticancer therapy, or withdrawal of consent or physician's decision. For adjuvant therapy, Compound A was administered at 15, 30, and 45 mg 4 days on/24 days off and TMZ was administered at 150 or 200 mg/m^2 QD Days 1-5, followed by Compound A at 45 mg 4 days on/24 days off. For adjuvant therapy, part B, Compound A was administered at RP2D and TMZ was administered at 150 or 200 mg/m^2, followed by Compound A at 45 mg 4 days on/24 days off.\nFor concomitant therapy, Compound A, TMZ, and RT were administered for 6 weeks, then 4-week break, followed by adjuvant Compound A and TMZ for 6 cycles then Compound A monotherapy in 28-day cycles until disease progression, start of a new anticancer therapy, withdrawal of consent or physician's decision. For concomitant therapy, part A, Compound A was administered at 15 mg or 30 mg QD Days 1-4 (weeks 1,5), TMZ was administered at 75 mg/m^2/day QD, and RT was administered at 2 Gy QD×5 days/week, for 42 days. This was then followed by a break in treatment therapy, e.g., from 1 to up to 4 weeks. Thereafter, adjuvant therapy was initiated by administering Compound A at 30 mg or 45 mg and TMZ at 150 or 200 mg/m^2 QD Days 1-5 of a 28-day cycle. Adjuvant therapy cycles were repeated from 2 to 6 times. After adjuvant therapy, was a monotherapy treatment. Monotherapy comprised administering Compound A at 45 mg 4 days on/24 days off.\nData presented as geometric mean (geometric CV %) for AUC and Cmax, mean (SD) for t1/2, and median (range) for tmax. AI AUC, accumulation index ratio of exposure measured at Day 4 to that after Day 1; AI Cmax, accumulation index ratio of maximum observed concentration at Day 4 to that after Day 1; AUC24, area under the concentration-time curve within a 24-hour dosing interval; Cmax, maximum observed concentration; NA, not applicable; t1/2, apparent terminal phase half-life."}, "[2]": {"test": "Safety (treatment-related adverse events), CC-90010-GBM-001", "assay_type": "in vivo, human", "from_the_text": "The primary objectives of the study in this example were determination of tumor tissue concentration and plasma pharmacokinetics (PK) of Compound A. The secondary and exploratory objectives included safety, antitumor activity, cerebrospinal fluid concentration, and pharmacodynamics (PD).\nThe study described in this example (CC-90010-GBM-001 study/NCT04047303) enrolled patients with progressive or recurrent astrocytoma or recurrent glioblastoma who have failed radiation and chemotherapy, and who are candidates for surgical tumor resection as part of their salvage regimen.\nPatients were treated with Compound A at 30 mg daily on Day 1 to Day 4 prior to undergoing indicated tumor resection and to maintain platelet count above the minimum of […] recommended for surgery (Part A, preoperative treatment). Following recovery from surgery and a minimum of 4 weeks from the first dose of Compound A, subjects who were fit to continue were treated with Compound A at 45 mg on a 4 days on/24 days off schedule (180 mg per 28-day cycle). Maintenance treatment continued until disease progression, unacceptable toxicity, or withdrawal of consent."}, "[3]": {"conditions": "human, plasma, oral, LD, Part A"}, "[4]": {"conditions": "human, plasma, oral, LD, Part B"}},
  "note": "Values joined by “and” are separate entries in the source; they are usually repeats but may differ in a detail not shown here. Identical values can stand only once. Like-named read-outs stand apart in the source and are kept apart here.",
  "data": [
    {"smiles": "Cn1cc(-c2cc(S(C)(=O)=O)ccc2OCC2CC2)c2ccccc2c1=O", "note": "[Compound A, 4-[2-(cyclopropylmethoxy)-5-methylsulfonylphenyl]-2-methylisoquinolin-1-one]", "values": [
      {"measurement": "Exposure versus dose", "setting": "[1]; 15, 30, 45 mg with TMZ", "result": "increased proportionally with dose"},
      {"measurement": "Cmax", "setting": "[1]; D1, GBM-002 (Part A) (n = 6)", "result": 306, "unit": "ng/mL"},
      {"measurement": "tmax", "setting": "[1]; D1, Part A", "result": 2.0, "unit": "h"},
      {"measurement": "Day 4 time to peak Compound A concentration", "setting": "[1]; Day 4", "result": "0.5 to 2.0 h and 0.5 to 4.0 h"},
      {"measurement": "Cmax", "setting": "[1]; LD, GBM-002 (Part A) (n = 6)", "result": 822, "unit": "ng/mL"},
      {"measurement": "T1/2", "setting": "[1]; LD, Part A, mean", "result": 68, "unit": "h"},
      {"measurement": "tmax", "setting": "[1]; LD, Part A", "result": 1.5, "unit": "h"},
      {"measurement": "AI AUC24 (accumulation index ratio, Day 4 to Day 1)", "setting": "[1]; Part A", "result": 3.05},
      {"measurement": "AI Cmax (accumulation index ratio, Day 4 to Day 1)", "setting": "[1]; Part A", "result": 2.69},
      {"measurement": "AI AUC24 (accumulation index ratio, Day 4 to Day 1)", "setting": "[1]; Part B", "result": 2.61},
      {"measurement": "AI Cmax (accumulation index ratio, Day 4 to Day 1)", "setting": "[1]; Part B", "result": 2.11},
      {"measurement": "effect of coadministration with RT and TMZ on Compound A PK", "setting": "[1]; Part B", "result": "did not appear to impact Compound A PK"},
      {"measurement": "Cmax", "setting": "[1]; human, plasma, oral, D1, GBM-002 (Part B) (n = 17), read-out: Cmax", "result": 350, "unit": "ng/mL"},
      {"measurement": "AUC", "setting": "[1]; human, plasma, oral, D1, Part A", "result": 4580, "unit": "ng·h/mL"},
      {"measurement": "AUC", "setting": "[1]; human, plasma, oral, D1, Part B", "result": 4890, "unit": "ng·h/mL"},
      {"measurement": "Cmax", "setting": "[1]; human, plasma, oral, LD, GBM-002 (Part B) (n = 17), read-out: Cmax", "result": 740, "unit": "ng/mL"},
      {"measurement": "AUC(0-inf)", "setting": "[1]; [3]", "result": 49800, "unit": "ng·h/mL"},
      {"measurement": "AUC", "setting": "[1]; [3]", "result": 13900, "unit": "ng·h/mL"},
      {"measurement": "AUC(0-inf)", "setting": "[1]; [4]", "result": 48700, "unit": "ng·h/mL"},
      {"measurement": "AUC", "setting": "[1]; [4]", "result": 12700, "unit": "ng·h/mL"},
      {"measurement": "half-life", "setting": "[1]; human, plasma, oral, LD, Part B, mean, read-out: T1/2 (converted)", "result": 58, "unit": "h"},
      {"measurement": "half-life", "setting": "[1]; human, plasma, oral, read-out: mean terminal half-life", "result": "60 to 70", "unit": "h"},
      {"measurement": "patients with Grade 3/4 TRAEs", "setting": "[2]; N=20", "result": 45, "unit": "%"},
      {"measurement": "patients with grade 3/4 thrombocytopenia", "setting": "[2]; N=20", "result": 25, "unit": "%"},
      {"measurement": "patients with serious TRAEs (hemiparesis and lethargy)", "setting": "[2]; N=20", "result": "one"},
      {"measurement": "patients with ≥1 treatment-related adverse event (TRAE)", "setting": "[2]; N=20", "result": 90, "unit": "%"},
      {"measurement": "tolerability", "setting": "[2]; in vivo", "result": "well tolerated"}
    ]}
  ]
}
